Series [1] has as its target T1, NR2B receptor (Rattus norvegicus, UniProt P35439+Q00960).
T1 construct: Membranes were prepared by homogenization of forebrain of male CD rats; from tissue; host or cells: forebrain of male CD rats (P2 membrane)
Put plainly: NR2B Binding Assay. Particulars: for IC50: forebrain P2 membranes of male CD rats, 5 nM [3H] NR2B ligand. The procedure:
The activity of the cycloalkylene amide compounds of the present invention, as NR2B antagonists, is determined by their ability to inhibit the binding of NR2B subunit at its receptor sites employing radioactive ligands.
The NR^2B antagonist activity of the cycloalkylene amide compounds is evaluated by using the standard assay procedure described in, for example, J. Pharmacol., 331, pp 117-126, 1997. This method essentially involves determining the concentration of the individual compound required to reduce the amount of radiolabelled NR2B ligands by 50% at their receptor sites, thereby affording characteristic IC50 values for each compound tested. More specifically, the assay is carried out as follows.
Membranes were prepared by homogenization of forebrain of male CD rats weighing between 170˜190 g by using glass-Teflon homogenizer in 0.32 M sucrose at 4° C. The crude nuclear pellet was removed by centrifugation at 1000×g for 10 min, and the supernatant centrifuged at 17000×g for 25 min. The resulting pellet was resuspended in 5 mM Tris acetate pH 7.4 at 4° C. for 10 min to lyse cellular particles and again centrifuged at 17000×g. The resulting pellet (P2 membrane) was washed twice in Tris acetate, resuspended at 5.5 mg protein/ml and stored at −20° C. until use. All the manipulation was done on ice, and stock solution and equipment were kept on ice at all time.
For the saturation assay, receptor saturation was determined by incubating [^3H]-1-[(1S*,2S*)-2-hydroxy-2-(4-hydroxyphenyl)-1-methylethyl]-4-phenylpiperidin-4-ol and 50 μg protein of P2 membrane for 60 minutes at room temperature in a final 100 μl of incubation buffer (50 mM Tris HCl, pH7.4). Total and non-specific bindings (in the presence of 10 μM of unlabeled 1-[(1S*,2S*)-2-hydroxy-2-(4-hydroxyphenyl)-1-methylethyl]-4-phenylpiperidin-4-ol) were determined in a range of [^3H]-1-[(1S*,2S*)-2-hydroxy-2-(4-hydroxyphenyl)-1-methylethyl]-4-phenylpiperidin-4-ol concentrations (0.625 nM to 60 nM).
For the competition assay, test compounds were incubated in duplicate with 5 nM [^3H]-1-[(1S*,2S*)-2-hydroxy-2-(4-hydroxyphenyl)-1-methylethyl]-4-phenylpiperidin-4-ol and 50 μg protein of P2 membrane for 60 minutes at room temperature in a final 100 μl of 50 mM Tris HCl buffer (pH7.4). Nonspecific binding was determined by 10 μM of unlabeled 1-[(1S*,2S*)-2-hydroxy-2-(4-hydroxyphenyl)-1-methylethyl]-4-phenylpiperidin-4-ol (25 μl). The saturation derived KD gained in saturation assay was used for all Ki calculations.
All incubations were terminated by rapid vacuum filtration over 0.2% polyethyleneimine soaked Whatman GF/B glass fibre filter paper using a SKATRON cell harvester followed by three washes with ice-cold filtration buffer (5 mM Tris HCl, pH 7.4.). Receptor-bound radioactivity was quantified by liquid scintillation counting using Packard LS counter. Competition assays were performed by counting Wallac GF/B filters on Betaplate scintillation counter (Wallac).

The target of series [2] is Human HERG (Homo sapiens, UniProt Q12809). Put plainly: Human Dofetilide Binding Assay.
Protocol: Human HERG transfected HEK293S cells were prepared and grown in-house. The collected cells were suspended in 50 mM Tris-HCl (pH 7.4 at 4° C.) and homogenized using a hand held Polytron PT 1200 disruptor set at full power for 20 sec on ice. The homogenates were centrifuged at 48,000×g at 4° C. for 20 min. The pellets were then resuspended, homogenized, and centrifuged once more in the same manner. The final pellets were resuspended in an appropriate volume of 50 mM Tris-HCl, 10 mM KCl, 1 mM MgCl2 (pH 7.4 at 4° C.), homogenized, aliquoted and stored at −80° C. until use. An aliquot of membrane fractions was used for protein concentration determination using BCA protein assay kit (PIERCE) and ARVOsx plate reader (Wallac).
Binding assays were conducted in a total volume of 200 μl in 96-well plates. Twenty μl of test compounds were incubated with 20 μl of [^3H]-dofetilide (Amersham, final 5 nM) and 160 μl of membrane homogenate (25 μg protein) for 60 minutes at room temperature. Nonspecific binding was determined by 10 μM dofetilide at the final concentration. Incubation was terminated by rapid vacuum filtration over 0.5% presoaked GF/B Betaplate filter using Skatron cell harvester with 50 mM Tris-HCl, 10 mM KCl, 1 mM MgCl2, pH 7.4 at 4° C. The filters were dried, put into sample bags and filled with Betaplate Scint. Radioactivity bound to filter was counted with Wallac Betaplate counter.

Molecules are shown by their SMILES.

Chain of Human HERG (Q12809 whole entry): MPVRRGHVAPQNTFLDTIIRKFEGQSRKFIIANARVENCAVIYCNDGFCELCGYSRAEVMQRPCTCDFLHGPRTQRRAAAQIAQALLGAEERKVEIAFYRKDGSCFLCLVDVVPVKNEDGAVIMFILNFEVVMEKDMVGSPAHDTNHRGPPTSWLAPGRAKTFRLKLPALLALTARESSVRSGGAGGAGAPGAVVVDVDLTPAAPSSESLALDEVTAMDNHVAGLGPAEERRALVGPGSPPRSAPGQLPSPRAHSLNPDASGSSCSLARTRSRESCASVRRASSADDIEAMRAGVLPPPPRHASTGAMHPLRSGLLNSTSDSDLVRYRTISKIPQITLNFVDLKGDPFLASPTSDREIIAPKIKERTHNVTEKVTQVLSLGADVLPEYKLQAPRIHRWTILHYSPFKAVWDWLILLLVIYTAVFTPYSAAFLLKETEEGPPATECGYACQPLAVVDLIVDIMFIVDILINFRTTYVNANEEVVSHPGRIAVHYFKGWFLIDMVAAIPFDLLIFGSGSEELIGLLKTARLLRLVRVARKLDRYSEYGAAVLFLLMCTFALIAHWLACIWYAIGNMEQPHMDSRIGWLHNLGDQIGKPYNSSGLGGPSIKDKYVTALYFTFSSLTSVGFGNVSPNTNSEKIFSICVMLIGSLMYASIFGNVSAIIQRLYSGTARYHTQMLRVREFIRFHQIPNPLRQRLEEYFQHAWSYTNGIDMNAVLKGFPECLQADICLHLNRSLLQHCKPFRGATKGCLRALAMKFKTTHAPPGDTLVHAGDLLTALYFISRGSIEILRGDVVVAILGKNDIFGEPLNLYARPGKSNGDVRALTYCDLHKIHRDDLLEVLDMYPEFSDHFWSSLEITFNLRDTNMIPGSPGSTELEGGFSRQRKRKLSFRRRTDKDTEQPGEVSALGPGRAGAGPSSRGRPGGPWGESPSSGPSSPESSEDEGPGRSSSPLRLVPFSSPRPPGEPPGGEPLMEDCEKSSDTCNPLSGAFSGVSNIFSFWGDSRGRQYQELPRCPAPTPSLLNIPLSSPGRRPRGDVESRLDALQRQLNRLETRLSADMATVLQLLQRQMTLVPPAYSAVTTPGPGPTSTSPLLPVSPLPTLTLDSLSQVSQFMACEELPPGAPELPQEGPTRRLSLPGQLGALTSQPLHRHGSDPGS
T1 sequence (Q00960 27-1482, other chains not shown): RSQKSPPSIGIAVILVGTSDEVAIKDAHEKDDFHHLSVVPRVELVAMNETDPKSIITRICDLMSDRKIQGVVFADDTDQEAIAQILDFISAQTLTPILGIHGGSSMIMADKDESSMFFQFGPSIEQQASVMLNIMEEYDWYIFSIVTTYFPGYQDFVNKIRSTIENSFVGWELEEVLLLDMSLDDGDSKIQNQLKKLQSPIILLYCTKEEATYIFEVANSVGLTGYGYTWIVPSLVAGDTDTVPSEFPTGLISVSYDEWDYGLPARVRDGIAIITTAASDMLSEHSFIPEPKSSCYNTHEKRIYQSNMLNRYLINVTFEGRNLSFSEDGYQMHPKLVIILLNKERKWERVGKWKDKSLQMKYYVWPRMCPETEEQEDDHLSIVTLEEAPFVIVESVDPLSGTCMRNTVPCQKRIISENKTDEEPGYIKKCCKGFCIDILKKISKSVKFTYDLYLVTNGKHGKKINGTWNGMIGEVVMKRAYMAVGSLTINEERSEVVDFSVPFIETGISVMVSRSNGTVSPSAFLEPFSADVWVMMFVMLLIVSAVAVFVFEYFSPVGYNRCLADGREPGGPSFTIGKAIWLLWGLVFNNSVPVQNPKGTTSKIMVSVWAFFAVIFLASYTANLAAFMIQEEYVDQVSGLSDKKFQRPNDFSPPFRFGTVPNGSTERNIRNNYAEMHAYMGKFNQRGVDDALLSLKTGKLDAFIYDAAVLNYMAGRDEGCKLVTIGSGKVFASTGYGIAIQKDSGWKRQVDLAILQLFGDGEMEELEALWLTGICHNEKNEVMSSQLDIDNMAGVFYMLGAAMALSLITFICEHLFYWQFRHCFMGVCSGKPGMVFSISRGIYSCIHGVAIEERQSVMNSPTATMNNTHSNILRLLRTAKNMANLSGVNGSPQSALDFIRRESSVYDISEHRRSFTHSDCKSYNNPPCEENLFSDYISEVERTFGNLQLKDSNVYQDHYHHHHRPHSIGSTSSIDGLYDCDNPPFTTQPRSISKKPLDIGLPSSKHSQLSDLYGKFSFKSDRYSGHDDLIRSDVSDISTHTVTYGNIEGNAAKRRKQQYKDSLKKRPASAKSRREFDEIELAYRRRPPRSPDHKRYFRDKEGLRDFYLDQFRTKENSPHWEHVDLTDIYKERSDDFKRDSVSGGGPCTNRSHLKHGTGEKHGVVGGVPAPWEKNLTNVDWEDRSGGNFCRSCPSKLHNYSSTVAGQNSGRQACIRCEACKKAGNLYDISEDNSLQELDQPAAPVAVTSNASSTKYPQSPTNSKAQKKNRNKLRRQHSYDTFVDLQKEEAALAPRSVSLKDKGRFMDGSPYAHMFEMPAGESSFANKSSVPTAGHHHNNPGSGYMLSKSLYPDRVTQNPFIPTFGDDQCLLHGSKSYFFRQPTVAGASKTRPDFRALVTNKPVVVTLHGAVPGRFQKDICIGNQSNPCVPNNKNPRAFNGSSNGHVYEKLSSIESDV

In turn, `O=C(NC[C@]1(O)CC[C@H](COc2ccc(F)cc2)CC1)c1ccc(O)cc1` [Example 9, N-({trans-4-[(4-Fluorophenoxy)methyl]-1-hydroxcyclohexyl}methyl)-4-hydroxybenzamide] had a melting point of 176.4 °C. Besides, the IC50 in series [1] is 7.5 nM. In series [2], the IC50 is 26.3 µM.
For `O=C(NC[C@]1(O)CC[C@H](COc2cccc(F)c2)CC1)c1ccc(O)cc1` [Example 10, N-({trans-4-[(3-Fluorophenoxy)methyl]-1-hydroxycyclohexyl}methyl)-4-hydroxybenzamide], the melting point was determined as 186 °C. In addition, the IC50 in series [1] was 12 nM. In addition, the IC50 in series [2] stood at 25.8 µM.
On to `O=C(NC[C@]1(O)CC[C@H](COc2ccccc2F)CC1)c1ccc(O)cc1` [Example 11, N-({trans-4-[(2-Fluorophenoxy)methyl]-1-hydroxycyclohexyl}methyl)-4-hydroxybenzamide], for which the melting point came out at 185 °C. The Ki in series [1] (competition assay, rat forebrain P2 membranes, read-out: Ki value, binding affinity for the NR2B receptor) was found to be 6.2 nM. The same compound yielded an IC50 in series [1] of 8.5 nM. Also, the IC50 in series [2] was above 100 µM.
`O=C(NC[C@]1(O)CC[C@H](COc2cc(F)cc(F)c2)CC1)c1ccc(O)cc1` [Example 13, N-({trans-4-[(3,5-Difluorophenoxy)methyl]-1-hydroxycyclohexyl}methyl)-4-hydroxybenzamide]: the melting point was determined as 102.4 °C. In series [1], this compound gave an IC50 of 30 nM. Also, in series [2], the IC50 came to 62.6 µM.
Regarding `O=C(NC[C@]1(O)CC[C@H](COCc2ccccc2F)CC1)c1ccc(O)c(F)c1` [Example 69, 3-Fluoro-N-[(trans-4-{[(2-fluorobenzyl)oxy]methyl}-1-hydroxycyclohexyl)methyl]-4-hydroxybenzamide], the IC50 is 13.2 nM in series [1] and above 100 µM in series [2].
Taken in the same sequence, the figures for `O=C(NC[C@H]1CC[C@@H](COc2ccc(F)cc2)OC1)c1ccc(O)cc1` [Example 74, N-({(3R,6S)-6-[(4-Fluorophenoxy)methyl]tetrahydro-2H-pyran-3-yl}methyl)-4-hydroxybenzamide] were 7.2 nM and 54.7 µM.
For `O=C(NC[C@H]1CC[C@@H](COc2ccc(F)cc2)CO1)c1ccc(O)cc1` [Example 75, N-({(2R,5R)-5-[(4-Fluorophenoxy)methyl]tetrahydro-2H-pyran-2-yl}methyl)-4-hydroxybenzamide] the same measures were 6.2 nM and 26.8 µM.
Turning to `O=C(NC[C@@H]1CC[C@H](COc2ccc(F)cc2)CO1)c1ccc(O)cc1` [Example 76, N-({(2S,5S)-5-[(4-Fluorophenoxy)methyl]tetrahydro-2H-pyran-2-yl}methyl)-4-hydroxybenzamide], the IC50 in series [1] came to 29.3 nM; in series [2], 27.7 µM.
For `O=C(NC[C@H]1CC[C@@H](OCCOc2ccccc2)CC1)c1ccc(O)cc1` [Example 78] the same measures were 5.4 nM and 40.8 µM.
For `O=C(NC[C@]1(O)CC[C@H](Cc2ccc(F)cc2)CC1)c1ccc(O)c(F)c1` [Example 80, 3-Fluoro-N-{[trans-4-(4-fluorobenzyl)-1-hydroxycyclohexyl]methyl}-4-hydroxybenzamide] the same measures were 8.9 nM and above 100 µM.
As to `O=C(NC[C@]1(O)CC[C@H](Cc2ccc(F)cc2)CC1)c1ccc(O)cc1` [Example 81, N-{[trans-4-(4-Fluorobenzyl)-1-hydroxycyclohexyl]methyl}-4-hydroxybenzamide], the results for the IC50 in series [1] and in series [2] were 9.5 nM and 35.7 µM, respectively.
For `O=C(NC[C@H]1CC[C@@H](COc2ccccn2)CC1)c1ccc(O)c(F)c1` [Example 89, 3-Fluoro-4-hydroxy-N-({cis-4-[(pyridin-2-yloxy)methyl]cyclohexyl}methyl)benzamide], the IC50 in series [1] is 9 nM; in series [2], above 100 µM.
For `O=C(NC[C@H]1CC[C@@H](OCCOc2ccc(F)cc2)CC1)c1cn[nH]c1` [Example 90, N-({cis-4-[2-(4-Fluorophenoxy)ethoxy]cyclohexyl}methyl)-1H-pyrazole-4-carboxamide] the same measures were 5.2 nM and above 100 µM.
Taken in the same sequence, the figures for `O=C(NC[C@H]1CC[C@@H](CCOc2ccccc2)CC1)c1cc(F)c(O)c(F)c1` [Example 91, 3,5-Difluoro-4-hydroxy-N-{[cis-4-(2-phenoxyethyl)cyclohexyl]methyl}benzamide] were 13 nM and above 30 µM.
For `O=C(NC[C@H]1CC[C@@H](OCCOc2ccc(F)cc2)CC1)c1ccc(O)nc1` [Example 95] the same measures were 4 nM and above 100 µM.
As for `O=C(NC[C@H]1CC[C@@H](COc2ccccn2)CC1)c1cn[nH]c1` [Example 105, N-({cis-4-[(Pyridin-2-yloxy)methyl]cyclohexyl}methyl)-1H-pyrazole-4-carboxamide], the IC50 was 27.2 nM in series [1] and above 100 µM in series [2].
Regarding `O=C(NC[C@H]1CC[C@@H](COc2cccc(F)c2)CC1)c1cn[nH]c1` [Example 106, N-({cis-4-[(3-Fluorophenoxy)methyl]cyclohexyl}methyl)-1H-pyrazole-4-carboxamide], the IC50 is 16 nM in series [1] and 29.1 µM in series [2].
For `O=C(NC[C@H]1CC[C@@H](COc2ccccc2)CC1)c1cc(F)c(O)c(F)c1` [Example 108, 3,5-Difluoro-4-hydroxy-N-{[cis-4-(phenoxymethyl)cyclohexyl]methyl}benzamide] the same measures were 17.8 nM and above 100 µM.
For `O=C(NC[C@H]1CC[C@@H](CCOc2ccc(F)cc2)CO1)c1cn[nH]c1` [Example 113, N-({(2R,5S)-5-[2-(4-Fluorophenoxy)ethyl]tetrahydro-2H-pyran-2-yl}methyl)-1H-pyrazole-4-carboxamide] the same measures were 6.5 nM and above 100 µM.
With `O=C(NC[C@@H]1CC[C@H](CCOc2ccc(F)cc2)CO1)c1cn[nH]c1` [Example 114, N-({(2S,5R)-5-[2-(4-fluorophenoxy)ethyl]tetrahydro-2H-pyran-2-yl}methyl)-1H-pyrazole-4-carboxamide], the IC50 in series [1] stood at 7.8 nM; in series [2] it was 99.4 µM.
For `O=C(NC[C@H]1CC[C@@H](COc2ccc(Cl)cc2)CO1)c1cn[nH]c1` [Example 120, N-({(2R,5R)-5-[(4-Chlorophenoxy)methyl]tetrahydro-2H-pyran-2-yl}methyl)-1H-pyrazole-4-carboxamide] the same measures were 12.2 nM and above 30 µM.
Regarding `Cc1ccc(OC[C@@H]2CC[C@H](CNC(=O)c3cn[nH]c3)OC2)cc1` [Example 123, N-({(2R,5R)-5-[(4-Methylphenoxy)methyl]tetrahydro-2H-pyran-2-yl}methyl)-1H-pyrazole-4-carboxamide], the IC50 in series [1] is 7.1 nM; in series [2], above 100 µM.
As for `Nc1n[nH]cc1C(=O)NC[C@H]1CC[C@@H](COc2ccc(Cl)cc2)CO1` [Example 125, 3-Amino-N-({(2R,5R)-5-[(4-chlorophenoxy)methyl]tetrahydro-2H-pyran-2-yl}methyl)-1H-pyrazole-4-carboxamide], the IC50 in series [1] was 12.5 nM; in series [2], above 30 µM.
Regarding `O=C(NC[C@H]1CC[C@@H](COc2ccc(Cl)cc2)CO1)c1cc(F)c(O)c(F)c1` [Example 126, N-({(2R,5R)-5-[(4-Chlorophenoxy)methyl]tetrahydro-2H-pyran-2-yl}methyl)-3,5-difluoro-4-hydroxybenzamide], the concentration for half-maximal inhibition (IC50) in series [1] is 18.1 nM; in series [2] it was above 100 µM.
For `O=C(NC[C@H]1CC[C@@H](COc2ccc(Cl)c(F)c2)CO1)c1cn[nH]c1` [Example 129, N-({(2R,5R)-5-[(4-Chloro-3-fluorophenoxy)methyl]tetrahydro-2H-pyran-2-yl}methyl)-1H-pyrazole-4-carboxamide], the figures for the IC50 in series [1] and in series [2] were 10.3 nM and above 30 µM, respectively.

As a reminder, the IC50 is the point on the concentration scale where inhibition reaches its midpoint. A lower IC50 goes with higher potency. A word on the melting point: it is the temperature, or range, at which the solid turns liquid. For orientation: Ki means the equilibrium dissociation constant of an inhibitor or competing ligand from its target.

(Values after patent US20070167452A1, “Therapeutic amide derivatives” (PFIZER, INC., priority 2004, published 2007).)
